Patent US20230310472A1, “Stable Topical Formulations of 1(R)-4-(5-(4-Methoxy-3-Propoxphenyl)Pyridin-3-YL)-1,2-OX-Aborolan-2-OL” (Pfizer Inc., priority 2020, published 2023)

Assays:
Assay type in all cases: in vitro ADME
[1] = tested on: dog hepatocytes; test: In vitro metabolism in hepatocytes; settings: non-radiolabeled
Source text: (§1) An assessment of the metabolism of non-radiolabeled PF-07038124 was 5 conducted in vitro using mouse, rat, dog, monkey and human hepatocytes. […] The primary routes of metabolism were hydrolysis/oxidation of the oxaborole ring to yield the diol (PF-07086920), glucuronidation of the pyridyl nitrogen, hydroxylation on the propyl group of the phenoxypropyl moiety, and demethylation of the methoxy group (shown below). All metabolites detected in mouse, rat, dog, and monkey hepatocytes were also observed in human hepatocytes.

[2] = tested on: human hepatocytes; test: In vitro metabolism in hepatocytes; settings: non-radiolabeled
Source text: as §1

[3] = tested on: monkey hepatocytes; test: In vitro metabolism in hepatocytes; settings: non-radiolabeled
Source text: as §1

[4] = tested on: mouse hepatocytes; test: In vitro metabolism in hepatocytes; settings: non-radiolabeled
Source text: as §1

[5] = tested on: rat hepatocytes; test: In vitro metabolism in hepatocytes; settings: non-radiolabeled
Source text: as §1

[6] = Stability on incubation in blood (LC-MS/MS); settings: for concentration of PF-07038124 following incubation / concentration of PF-07086920 following incubation of PF-07038124: 1 hour at 1 μM; for chemical stability in blood: oxidation of the oxaborole ring to diol
Method: One of the major metabolic pathways in humans was formation of the oxaborole ring opened molecule, PF-07086920. […] Following incubation for 1 hour at 1 μM in human and rat blood, the concentration of PF-07038124 declined whereas the concentration of PF-07086920 increased in both human and rat blood as determined by liquid chromatography-tandem mass spectrometry. In addition to being a metabolite, PF-07086920 was also determined to be a degradant in the formulations comprising PF-07038124.

Row | SMILES | metabolism of PF-07038124 in hepatocytes [1] | metabolism of PF-07038124 in hepatocytes [2] | metabolism of PF-07038124 in hepatocytes [3] | metabolism of PF-07038124 in hepatocytes [4] | metabolism of PF-07038124 in hepatocytes [5] | concentration of PF-07038124 following incubation ([6]; human blood) | chemical stability in blood ([6]; human blood) | concentration of PF-07038124 following incubation ([6]; rat blood) | chemical stability in blood ([6]; rat blood) | concentration of PF-07086920 following incubation of PF-07038124 ([6]; human blood) | concentration of PF-07086920 following incubation of PF-07038124 ([6]; rat blood)
1 | CCCOc1cc(-c2cncc([C@@H]3COB(O)C3)c2)ccc1OC [PF-07038124, (R)-4-(5-(4-methoxy-3-propoxyphenyl)pyridin-3-yl)-1,2-oxaborolan-2-ol] | Moderate to extensive metabolism | Moderate to extensive metabolism | Moderate to extensive metabolism | Moderate to extensive metabolism | Moderate to extensive metabolism | declined | chemically unstable | declined | chemically unstable |  | 
2 | CCCOc1cc(-c2cncc(C(CO)CO)c2)ccc1OC [PF-07086920, 2-(5-(4-methoxy-3-propoxyphenyl)pyridin-3-yl)propane-1,3-diol] |  |  |  |  |  |  |  |  |  | increased | increased
